Experimental data as given in patent publication US8084602B2, “Porphyrin derivatives and their use in photodynamic therapy” (Destiny Pharma Limited, priority 2002, dated 2011).
Like-named read-outs stand apart in the source and are kept apart here.

How the values were obtained:
[1] = system: Staphylococcus aureus (methicillin-resistant strain ATTC BAA-44); test: Initial screening: growth inhibition after white light illumination; assay type: cell-based; details: Staphylococcus aureus
Method: (§1) The toxic effects of exemplary compounds of the invention against two bacterial strains, the Gram negative bacterium Escherichia coli (strain ATCC 25922) and the Gram positive bacterium Staphylococcus aureus (methicillin-resistant strain ATTC BAA-44), were evaluated by measuring the extent of growth inhibition (bacteriostatic effect) and growth […] (cytocidal effect) in the dark and upon light exposure. Initial compound screening was undertaken using white light [390-740 nm] (150 mW/cm^2) for various timepoints of a concentration of 3 μM (see Table 1). Further experiments were undertaken on those compounds identified from this initial screen using a light source emitting light at a wavelength between 417-420 nm at 15.2 mW/cm^2, 13.68 J/cm^2 (Waldmann Eclairage SA, France) (see Table 20.
(§2) The following protocol was used for the initial screening of the exemplary compounds (Table 1) (see Reddi et al., 2002, Photochem. Photobiol. 75(5):462-470): • (i) E. coli and S. aureus cells were grown overnight on brain heart infusion agar, resuspended in brain heart infusion broth, harvested by centrifugation (3000 g for 15 minutes) and washed once with phosphate buffered saline (PBS) at pH 7.4 consisting 2.7 mM KCl and 0.14 M NaCl. • (ii) The cells were then resuspended in PBS to an optical density at 650 nm of 0.7, which corresponds to a density of 10^8 to 10^9 cells/ml. • (iii) Next, the cells were incubated in PBS in the dark for 5 minutes with 3.0 μM of the compound to be tested. • (iv) After dark incubation, cells were illuminated with white light (wavelength: 390 to 740 nm) (150 mW/cm^2) for up to 30 minutes. During illumination, the cells were kept at 37° C. and magnetically stirred. • (v) Finally, treated and untreated (control) cells were diluted in brain heart infusion broth and maintained at […] while the absorbance of the suspension at 650 nm was monitored at predetermined time points for determining growth curves.
(§3) The percent of growth inhibition in the treated cells was calculated by the following equation: [1−(Ax−A0)/(Ac−A0)]×100 where Ax Ac are the absorbances measured after 3 hours incubation, for the treated and control cell suspensions, respectively, and A0 represents the initial absorbance.

[2] = system: Escherichia coli (strain ATCC 25922); test: as above; assay type: cell-based; details: Escherichia coli
Method: as §1, §2, §3

[3] = system: Guinea Pig skin (intact and abraded); test: Photo-toxicity test (OECD 406 based); assay type: in vivo
Method: Clinical and histological examination of the skin test sites was conducted at 24 and 72 hours post illumination in classical photo-toxicity testing fashion. Biopsies were not done from contiguous sites to prevent any interaction in case of suture. Gross findings were evaluated at the moment of the biopsy. Before giving a score to each endpoint (erythema, oedema and inflammation), data for each subject were compared to the data from the other animals and to control data. A score from 0 to 4 was given for each site and for each endpoint according to the Draize Scale (for inflammation, a scale similar to the Draize Scale was created after microscopic observation of all skin sections, comparing with normal skin and with findings of step-1). A mean score was then calculated for each animal and for each sampling point.

[4] = system: human dermal fibroblast (NHDF) cells; test: Quenching studies using sodium azide and D2O; assay type: cell-based; details: after illumination
Method: Triangle/solid line: Compound 10+PBS buffer+light; Squares/solid line: Compound 10+D2O+light; Circles/solid line: Compound 10+sodium azide+light; Triangles/dotted line: Compound 10+PBS buffer w/o light; Squares/dotted line: Compound 10+D2O w/o light; Circles/dotted line: Compound 10+sodium azide w/o light. (n=3, mean±Std).
Quenching studies using D2O and azide were performed with Compound 10 and light against keratinocytes in vitro. In order to investigate whether phototoxicity of the test compound against NHDF, NHEK and bacteria follows the photo-oxidation type II, sodium azide, a physical quencher of singlet oxygen as well as D2O an enhancer of reactive oxygen species were (Lin et al., 1991, Cancer Res. 51:1109-1116; Moan et al., 1979, Brit. J. Cancer 39:398-407).

S. aureus ATCC BAA-44 = test: Photodynamic activity against MRSA on ex vivo porcine skin; assay type: cell-based, Staphylococcus aureus; details: 10 μM applied 10 minutes, 15 minutes irradiation, mean of three target areas
Method: Excised porcine skin was cut into 3(4)×3(4) cm^2 pieces under sterile conditions and incubated in 70% ethanol for 5 minutes to reduce background of colonised bacteria. After three washing steps in PBS, the skin pieces were fixed in petri dishes with Hepes-Agar. The epidermis (stratum corneum) was then inoculated with S. aureus ATCC BAA-44 (˜10^8, Volume: 100 μl) and the skin surface dried under laminar flow cabinet until visible dry. The regions of interest were determined using a “pap” pen (1 cm^2 diameter). A sterile solution of Compound 10 (10 μM) was applied onto the skin for 10 minutes. Post application, the ex vivo porcine skin was placed under the Waldmann light source 236 and illuminated for 15 min (15.2 mW/cm^2, 13.7 J/cm^2). A colony forming unit assay was performed to determine viable bacterial cell number immediately after irradiation using a sterile cotton rod to remove bacteria from the stratum corneum. The sterile cotton rod was moistened in sampling solution (0.1% Tween80 in 0.0075 M phosphate buffer pH 7.9) before swabbing the skin surface (3 times) and vortexed in sampling solution before undertaking serial dilutions to determine the bacterial recovery.

SMILES | inhibition at 3 µM ([1]; BAA44, 5 min, read-out: Growth inhibition (%), S. aureus, 5 min incubation, illumination time 5 min) [%] | inhibition at 3 µM ([1]; BAA44, read-out: Growth inhibition (%), S. aureus, 5 min incubation, illumination time 0 min) [%] | inhibition at 3 µM ([1]; BAA44, read-out: Growth inhibition (%), S. aureus, 5 min incubation, illumination time 1 min) [%] | inhibition at 3 µM ([1]; BAA44, read-out: Growth inhibition (%), S. aureus, 5 min incubation, illumination time 10 min) [%] | inhibition at 3 µM ([1]; BAA44, read-out: Growth inhibition (%), S. aureus, 5 min incubation, illumination time 15 min) [%] | inhibition at 3 µM ([1]; BAA44, read-out: Growth inhibition (%), S. aureus, 5 min incubation, illumination time 30 min) [%] | inhibition at 3 µM ([2]; ATCC25922, 5 min, read-out: Growth inhibition (%), E. coli, 5 min incubation, illumination time 5 min) [%] | inhibition at 3 µM ([2]; ATCC25922, read-out: Growth inhibition (%), E. coli, 5 min incubation, illumination time 0 min) [%] | inhibition at 3 µM ([2]; ATCC25922, read-out: Growth inhibition (%), E. coli, 5 min incubation, illumination time 1 min) [%] | inhibition at 3 µM ([2]; ATCC25922, read-out: Growth inhibition (%), E. coli, 5 min incubation, illumination time 10 min) [%] | inhibition at 3 µM ([2]; ATCC25922, read-out: Growth inhibition (%), E. coli, 5 min incubation, illumination time 15 min) [%] | inhibition at 3 µM ([2]; ATCC25922, read-out: Growth inhibition (%), E. coli, 5 min incubation, illumination time 30 min) [%] | photo-toxic potential ([3]; 32 μM topical formulation, 24 hours on intact and abraded skin, then 30 minute light exposure, examined 24 and 72 hours post illumination) | damage to the surface of the skin ([3]; 32 μM, in the absence of light) | cell viability on addition of D2O ([4]; D2O) | Cell killing in the presence of sodium azide ([4]; sodium azide (50 mM)) | growth reduction (S. aureus ATCC BAA-44) [log10]
CN(C)CCC[N+](C)(C)CCCOc1ccc(-c2c3nc(cc4ccc([nH]4)c(-c4ccc(OCCC[N+](C)(C)CCCN(C)C)cc4)c4nc(cc5ccc2[nH]5)C=C4)C=C3)cc1.[Cl-].[Cl-] [Compound 8, 5,15-bis-(4-{3-[(3-Dimethylamino-propyl)-dimethylammonio]-propyloxy}-phenyl)-porphyrin dichloride] | 100 | 80 | 99 | 100 | 100 | 100 | 100 | 23 | 69 | 100 | 100 | 100 | – | – | – | – | –
C[N+](C)(C)CCCOc1ccc(-c2c3nc(cc4ccc([nH]4)c(-c4ccc(OCCC[N+](C)(C)C)cc4)c4nc(cc5ccc2[nH]5)C=C4)C=C3)cc1.[Cl-].[Cl-] [Compound 10, 5,15-bis-[4-(3-Trimethylammonio-propyloxy)-phenyl]-porphyrin dichloride] | – | – | – | – | – | – | – | – | – | – | – | – | no clinical signs or symptoms or histological findings that suggested any photo-toxic potential | did not result in any damage to the surface of the skin | dramatic decrease | reduced | 3.2
